Read-outs that look alike come from different tables or passages of the source.
Experiments:
[1] = tested on: CD4 or CD8 positive T cells; test: Lymphopenia in mice; type: in vivo; conditions: female C57BL6 mice, 1 mg/kg oral gavage, area under the effect curve over 24 h
Procedure: In mice: Female C57BL6 mice (Simonsen Laboratories, Gilroy Calif.) were housed in an ALAAC accredited facility and the research was approved by the facilities Institutional Animal Care and Use Committee (IACUC). The animals were acclimated to the laboratory for at least 5 days prior to initiation of experiments. Mice (n=3/compound/time-point) were dosed by oral gavage with 1 mg/kg compound formulated in a vehicle consisting of 5% DMSO/5% Tween 20 and 90% 0.1N HCl. Control mice were dosed PO with the vehicle. Terminal whole blood samples were collected from isoflurane anesthetized mice by cardiac puncture into EDTA. Whole blood was incubated with rat anti-mouse CD16/CD32 (Mouse BD Fc Block, #553141), PE-Rat anti-mouse CD45R/B220 (BD #553089), APC-Cy7-Rat anti-mouse CD8a (BD #557654), and Alexa Fluor647-Rat anti-mouse CD4 (BD #557681) for 30 min on ice. Red blood cells were lysed using BD Pharm Lyse Lysing buffer (#555899) and white blood cells were analyzed by FACS. Lymphopenia was expressed as the % of white blood cells that were CD4 or CD8 positive T cells. The overall lymphopenia response over 24 h was estimated by calculating the area under the effect curve (AUEC) using the linear trapezoidal rule.

S1P2 = target: T1, S1P2 (Homo sapiens, UniProt O95136); test: Specificity over other S1P receptors: S1P2 CRE-bla CHOK1 reporter assay; type: cell-based; conditions: S1P2 CRE-bla CHOK1, without Forskolin; read-out: S1P2 agonist value (EC50)
T1 construct: expressed in transfected cells; host or cells: CRE-bla CHOK1
T1 sequence (O95136 whole entry, species assumed): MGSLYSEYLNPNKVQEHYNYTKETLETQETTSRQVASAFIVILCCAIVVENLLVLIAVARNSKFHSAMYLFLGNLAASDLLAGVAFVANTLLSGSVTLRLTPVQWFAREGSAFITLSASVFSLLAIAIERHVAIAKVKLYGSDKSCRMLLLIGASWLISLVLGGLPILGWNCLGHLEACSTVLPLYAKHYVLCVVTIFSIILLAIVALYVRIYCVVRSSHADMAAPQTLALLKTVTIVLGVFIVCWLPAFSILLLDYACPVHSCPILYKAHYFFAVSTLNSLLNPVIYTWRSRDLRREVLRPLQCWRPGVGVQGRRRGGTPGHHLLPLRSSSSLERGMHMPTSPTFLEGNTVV
Procedure: (§1) Cells were seeded into 384-well black wall/clear bottom plates at 10^4 cells/well/19.5 μl assay media (DMEM-phenol free, 0.5% charcoal/dextran stripped serum, 2 mM glutamine, 0.1 mM NEAA, 1 mM Na-Pyruvate, 25 mM Hepes) and incubated for 18 hrs at 37° C. in 5% CO2. Dose response curves (10-point) were generated in 10 mM Hepes, 0.1% Pluronic F127, in the presence of Forskolin. Cells were treated with 0.5 μl compound in the presence of 2 μM Forskolin for 4 hrs at 37° C. The FRET-based β-lactamase fluorescent substrate (LiveBLAzer™-FRET B/G Loading Kit CC4-AM; Invitrogen) was prepared according to manufacturer's directions, and incubated with cells for 2 hrs at room temperature. Plates were read at Ex:410/Em:458 and Ex:410/Em:522, and the response ratio determined. Data was analyzed by non-linear regression to determine the EC50 for inhibition of Forskolin induced cAMP.
(§2) To assess compound specificity on other S1P receptors the following cell lines were used: S1P2 CRE-bla CHOK1, S1P3-Gα15 NFAT-bla HEK293T (Invitrogen), S1P4-bla TANGO U2OS (Invitrogen), S1P5-bla TANGO U2OS (Invitrogen). The same assay set up for S1P1 was used but without Forskolin. S1P4 and S1P5 assays were performed in FreeStyle Expression medium (Invitrogen). S1P5 cells were incubated for 48 hrs in prior to treatment with compound.

S1P5 = target: T2, S1P5 (Homo sapiens, UniProt Q9H228); test: Specificity over other S1P receptors: S1P5-bla TANGO U2OS assay; type: cell-based; conditions: read-out: S1P5 agonist value (EC50)
T2 construct: Tango fusion (own knowledge: protease cleavage site plus GAL4-VP16 transcription factor at the receptor's C-terminus); host or cells: U2OS (Tango -bla)
T2 sequence (Q9H228 whole entry, the tested form may be a part): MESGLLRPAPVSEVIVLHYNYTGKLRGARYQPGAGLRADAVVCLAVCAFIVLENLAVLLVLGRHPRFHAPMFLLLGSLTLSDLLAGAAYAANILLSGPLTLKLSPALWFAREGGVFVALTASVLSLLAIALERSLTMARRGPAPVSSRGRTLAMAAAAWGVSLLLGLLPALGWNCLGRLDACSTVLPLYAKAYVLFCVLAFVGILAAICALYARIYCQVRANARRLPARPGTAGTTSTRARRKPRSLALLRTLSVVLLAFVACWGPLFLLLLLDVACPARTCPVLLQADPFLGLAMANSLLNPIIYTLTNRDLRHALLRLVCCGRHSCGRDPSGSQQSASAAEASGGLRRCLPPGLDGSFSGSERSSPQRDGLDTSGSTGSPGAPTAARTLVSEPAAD
Procedure: as §1, §2

S1P4 = target: T3, S1P4 (Homo sapiens, UniProt O95977); test: Specificity over other S1P receptors: S1P4-bla TANGO U2OS assay; type: cell-based; conditions: read-out: S1P4 agonist value (EC50)
T3 construct: Tango fusion (own knowledge: protease cleavage site plus GAL4-VP16 transcription factor at the receptor's C-terminus); host or cells: U2OS (Tango -bla)
T3 sequence (O95977 1-384): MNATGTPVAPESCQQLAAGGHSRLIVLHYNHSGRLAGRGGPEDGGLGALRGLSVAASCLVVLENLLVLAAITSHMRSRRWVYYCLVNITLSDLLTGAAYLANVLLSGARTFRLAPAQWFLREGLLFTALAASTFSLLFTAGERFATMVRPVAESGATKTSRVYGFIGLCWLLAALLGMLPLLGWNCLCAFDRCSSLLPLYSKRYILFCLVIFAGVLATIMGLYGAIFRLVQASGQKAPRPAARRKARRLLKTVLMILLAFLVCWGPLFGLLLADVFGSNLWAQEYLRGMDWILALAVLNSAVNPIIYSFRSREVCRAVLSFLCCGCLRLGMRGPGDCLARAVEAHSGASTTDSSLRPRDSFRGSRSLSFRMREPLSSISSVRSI
Procedure: as §1, §2

S1P3 = target: T4, S1P3 (Homo sapiens, UniProt Q99500); test: Specificity over other S1P receptors: S1P3-Gα15 NFAT-bla HEK293T reporter assay; type: cell-based; conditions: without Forskolin, read-out: S1P3 agonist value (EC50)
T4 construct: host or cells: NFAT-bla HEK293T
T4 sequence (Q99500 whole entry): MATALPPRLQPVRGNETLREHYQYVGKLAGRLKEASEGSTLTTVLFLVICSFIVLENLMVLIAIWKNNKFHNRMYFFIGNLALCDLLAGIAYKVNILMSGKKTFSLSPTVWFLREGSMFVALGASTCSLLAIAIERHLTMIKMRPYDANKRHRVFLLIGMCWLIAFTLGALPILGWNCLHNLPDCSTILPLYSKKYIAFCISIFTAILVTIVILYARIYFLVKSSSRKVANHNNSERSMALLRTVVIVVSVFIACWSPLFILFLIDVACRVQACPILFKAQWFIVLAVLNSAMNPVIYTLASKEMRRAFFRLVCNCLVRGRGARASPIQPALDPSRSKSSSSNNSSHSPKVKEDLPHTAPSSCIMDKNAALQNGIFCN
Procedure: as §1, §2

S1P1/EDG1 = S1P1/EDG1 (Homo sapiens, UniProt P21453); test: S1P1 CRE-bla CHOK1 reporter assay, inhibition of Forskolin induced cAMP; type: cell-based
S1P1/EDG1, sequence (P21453 whole entry): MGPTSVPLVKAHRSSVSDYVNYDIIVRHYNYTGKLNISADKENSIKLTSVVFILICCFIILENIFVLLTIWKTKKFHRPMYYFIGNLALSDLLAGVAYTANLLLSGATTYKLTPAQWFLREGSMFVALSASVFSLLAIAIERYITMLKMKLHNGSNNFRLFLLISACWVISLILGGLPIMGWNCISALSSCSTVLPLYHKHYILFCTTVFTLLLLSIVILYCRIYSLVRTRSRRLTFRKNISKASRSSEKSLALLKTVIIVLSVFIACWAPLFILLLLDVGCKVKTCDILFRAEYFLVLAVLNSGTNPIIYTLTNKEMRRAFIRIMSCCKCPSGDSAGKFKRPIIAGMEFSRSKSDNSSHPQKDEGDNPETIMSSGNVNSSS
In short: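 Read-out is a FRET β-lactamase substrate (2 h, room temperature) after 4 h, 37 °C compound treatment under 2 μM Forskolin in stable S1P1-transfected CRE-bla CHO-K1 cells. Ten-point curves; non-linear regression gives EC50 for inhibition of Forskolin-stimulated cAMP.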

peripheral T-cell counts = test: Lymphopenia in rats, 3-5 day multiple dose regimen; type: in vivo, rat; conditions: female rats, oral, 24 h after final dose of a 3-5 day multiple dose regimen
Procedure: In rats: Female rats (Simonsen Laboratories, Gilroy Calif.) were housed in an ALAAC accredited facility and the research was approved by the facilities Institutional Animal Care and Use Committee (IACUC). The animals were acclimated to the laboratory for at least 5 days prior to initiation of experiments. Rats (n=3/compound/time-point) were dosed by oral gavage with 1 mg/kg compound formulated in a vehicle consisting of 5% DMS0/5% Tween 20 and 90% 0.1N HCL. Control rats were dosed PO with the vehicle. Whole blood was collected from isoflurane anesthetized rats via the retro-orbital sinus and terminal samples were collected by cardiac puncture into EDTA. Whole blood was incubated with mouse anti-rat CD32 (BD #550271), PE-mouse anti-rat CD45R/B220 (BD #554881), PECy5-mouse anti-rat CD4 (BD #554839), and APC-mouse anti-rat CD8a (eBioscience #17-0084) for 30 minutes on ice. Red blood cells were lysed using BD Pharm Lyse Lysing buffer (#555899) and white blood cells were analyzed with a BD FACSArray. Lymphopenia was expressed as the % of white blood cells that were CD4 or CD8 positive T cells. The overall lymphopenia response over 24 h was estimated by calculating the area under the effect curve (AUEC) using the linear trapezoidal rule.
(§3) The compounds listed in Table 6 were formulated as suspensions in a vehicle consisting of 0.5% carboxymethyl cellulose (Acros Organics) in purified water (pH adjusted to ˜2.2 with hydrochloric acid). The same formulation was used in the rat lymphopenia and toxicology studies described below. The concentration of each compound in suspension was verified to be within ±10% of the target concentration by HPLC-UV.
Prior to the conduct of toxicology studies, the effect of three to five daily doses of each compound on peripheral T-cell counts of female rats was determined (see lymphopenia measurements in rats above). In these lymphopenia studies, blood samples were collected onto EDTA at intervals after the final study dose. The collection times were not identical for each study, however, all studies included a sample collected 24 hours after the final dose. The lymphopenia data was used as a biomarker to select equally pharmacologically active doses for the subsequent toxicology study. […] The high dose in the toxicology study represented a ≧20-fold increment over the low dose.
(§4) The dose producing a 10% increase in lung to body weight ratio was interpolated from a plot of dose versus lung to body weight. The lymphopenia response was measured 24 hours following the final dose of a 3-5 day multiple dose regimen.

[2] = Evaluation of therapeutic index in rats: 5 or 14 day toxicology study, lung to body weight ratio; type: in vivo, Sprague-Dawley rat
Procedure: All studies were conducted in non-fasted male and female Sprague-Dawely rats (Simonsen Laboratories). Rats were housed in an AAALAC accredited facility and the research was approved by the facilities Institutional Animal Care and Use Committee (IACUC). The animals were acclimated to the laboratory for at least 5 days prior to initiation of experiments.
as §3
In the toxicology studies, three male and three female rats per group were assigned to dosing groups using body weight based randomization. A control group in each study received vehicle. All animals were dosed orally by gavage on 5 or 14-consecutive days at a dose volume of 5 mL/kg/day. The animals were observed daily for any manifestations of adverse effect. Twenty-four hours after the final study dose, the rats were anesthetized with isoflurane and a terminal blood sample was taken by intra-cardiac puncture for hematology and clinical chemistry evaluation (IDEXX Laboratories, Sacramento, Calif.). The lungs with trachea were collected, weighed, and then prepared for histology by perfusion with 10% neutral buffered formalin via the trachea. The internally fixed lungs were then preserved in 10% neutral buffered formalin and submitted for histological examination (IDEXX).
The dose of each compound resulting in a 10% increase in the lung to terminal body weight ratio was estimated for each compound by linear interpolation. The therapeutic index was estimated as the ratio of the dose producing 10% lung weight increase to the dose producing 50% T-Cell depletion.
as §4

SMILES	Mouse Lymphopenia (AUEC) [1]	EC50 (S1P2)	EC50 (S1P5)	EC50 (S1P4)	EC50 (S1P3)	EC50 (S1P1/EDG1; S1P1 CRE-bla CHOK1, with Forskolin, read-out: S1P1 agonist value (EC50))	EC50 (S1P1/EDG1; agonist activity range, S1P1 CRE-bla CHOK1, 2 μM Forskolin, read-out: S1P1 ACTIVITY)	Dose Producing 50% lymphopenia (peripheral T-cell counts)	Dose Resulting in 10% increase in lung weight ([2]; rats, oral, 5 or 14 consecutive days, interpolated from dose versus lung to body weight)	TI 14 days ([2]; therapeutic index: dose producing 10% lung weight increase / dose producing 50% T-cell depletion, 14 day toxicology study in rats)
CCOc1ccc(-c2nc(-c3cccc4c3CCC4O)no2)cc1OCC (racemic) [Compound 254, (+/−)-4-(5-(3,4,diethoxyphenyl)-1,2,4-oxadiazol-3-yl)-2,3-dihydro-1H-inden-1-ol, reference compound]	84	5.5 µM	0.0568 µM	5.5 µM	5.27 µM	0.16 nM	0.05 to 0.5 nM	–	–	–
CC(C)Oc1ccc(-c2nc(-c3cccc4c3CC[C@@H]4NCCO)no2)cc1C#N [Compound 86, (S)-5-(3-(1-(2-hydroxyethylamino)-2,3-dihydro-1H-inden-4-yl)-1,2,4-oxadiazol-5-yl)-2-isopropoxy benzonitrile]	1342	9.56 µM	0.0552 µM	4.19 µM	9.94 µM	–	–	0.15 mg/kg	2.7 mg/kg	18

Reference: patent publication US9388147B2 (Receptos, Inc., priority 2009, dated 2016)
